Assay results as given in patent US7538083B2, “Compositions and methods for the potentiation of immune responses against target antigens” (Intercell AG, priority 2003, dated 2009).
“Also recorded” adds a separate entry of the source.

Legend:
[1] = tested on: malaria mimetic UK39 (serum IgG against it); experiment: UK39 ELISA of mouse sera after immunization with UK39 IRIV with or without melittin; type: in vivo; conditions: Balb/c mice, UK39 IRIV (20 μg UK39) + 10 μg melittin; sera day 21 and 35, IgG ELISA read at 492 nm
Experimental: Balb/c mice were immunized with 100 μl PBS containing: the malaria mimetic UK39 (20 μg UK39) in combination with an IRIV with or without 10 μg Melittin. For the UK39 ELISA, ELISA plates were coated over night at 4° C. with 10 μg/ml UK39 in PBS. After washing with PBS 0.05% Tween20 plates were blocked with 5% dry milk in PBS 2 h at 37° C. Mouse sera from day 21 and 35 were initially diluted 1:10 and titrated in serial 1:2 dilutions in PBS 0.05% Tween20 0.5% dry milk. After 2 h incubation at 37° C. plates were washed and incubated with goat […]-mouse IgG HRP Ab (BD Bioscience) (1:5000 in PBS 0.05% Tween20 0.5% dry milk) 1 h 37° C. Plates were developed with OPD-substrate (OPD (O-Phenylenediamine tablets, Fluka, Switzerland, 1 tablet in 50 ml citrate buffer+50 μl H2O2) for 30 min. The reaction was stopped with 1 M H2SO4 and plates were read at 492 nm.
UK39 IRIV: 4 mg UK39, 4 mg influenza A/Singapore, 32 mg phosphatidylcholine (PC) and 8 mg phosphatidylethanolamine (PE) were resuspended in 4 ml 100 mM OEG in PBS (OEG-PBS), sonicated for 1 min and centrifugated for 1 h at 100′000×g at 20° C. […]
UK39 ELISA: ELISA plates were coated over night at 4° C. with 10 μg/ml UK39 in PBS. […] Plates were developed with OPD-substrate (OPD (O-Phenylendiamine tablets, Fluka, Switzerland, 1 tablet in 50 ml citrate buffer+50 μl H2O2) for 30 min. The reaction was stopped with 1 M H2SO4 and plates were read at 492 nm.

[2] = tested on: OVA257-64 peptide specific IFNγ+ CD8+ T cells; design: species or system C57Bl/6 mice; conditions: mouse, in vivo
[3] = tested on: IFNγ+ CD8+ T cells specific for T4 peptide VVYDFLKCM (Kb/T404-412); experiment: Splenic T4-specific IFNγ+ CD8+ T cell frequency after i.m. vaccination with T4/melittin-derived fusion peptide with or without ODN; type: in vivo, C57BL/6 (B6) mice; conditions: B6 mice, 35 nmol i.m.; for dependence of adjuvant activity on CpG motifs in the ODN: NSS+ ODN-1982 (no CpG) versus ISS+ ODN-1826 (CpG)
From the text: The adjuvant activity of the melittin-derived peptide thus acts synergistically even with oligodeoxynucleotides that lack any immunostimulatory sequences. C57BL/6 (B6) mice were either not immunized (group 1) or vaccinated i.m. with 35 nmol of peptides alone (group 2) or mixed with oligodeoxynucleotide (group 3), not containing (A; NSS^+ ODN-1982; SEQ ID NO: 7), or containing (B; ISS^+ ODN-1826; SEQ ID NO: 6) CpG motifs. Spleen cells obtained from immune mice 12 days post vaccination were restimulated ex vivo with the T4 peptide VVYDFLKCM (K^b/T404-412, SEQ ID NO: 4). Mean number of specific IFNγ^+ CD8^+ T cells/10^5 CD8^+ T cells±SD (of 6 mice per group) averaged from two independent experiments are shown.
Fusion of a sample antigen (here, T4 peptide) to the melittin-derived peptide and binding ODN to them creates potent immunogens for CD8^+ T cells. A sample target antigen, the SV40-derived T4 peptide T404-417 VVYDFLKCMVYNIP (SEQ ID NO: 5) was fused to a duplicated amino acid sequence derived from melittin (KRKRQKRKRQ, SEQ ID NO: 2). B6 mice were vaccinated i.m. with 35 nmol of these peptides alone (group 2), or mixed with ODN (group 3), not containing (A; NSS+ ODN-1982), or containing (B; ISS+ ODN-1826) CpG motifs (FIG. 1). Spleen cells obtained from immune mice 12 days post-vaccination were restimulated ex vivo with the T4 peptide VVYDFLKCM (SEQ ID NO: 4) (Kb/T404-412). Mean numbers of specific IFNγ^+ CD8^+ T cells/10^5 CD8^+ T cells±SD (of 6 mice per group) averaged from two independent experiments are shown.
C57BL/6JBom (B6) mice (H-2b) were bred and kept under standard pathogen-free conditions in the animal colony of Ulm University (Ulm, Germany). Male/female mice were used at 12-16 wks of age. The preparation of cationic peptide/ODN vaccines CpG containing ODN-1826 ([…]; ISS-1826, SEQ ID NO: 6) and its control ODN-1982 ([…]; NSS-1982, SEQ ID NO: 7) were obtained from MWG (Ebersberg, Germany). ODN were synthesized with phosphorothioate backbones. […] The number of CD8^+ IFNγ^+ T cells per 10^5 splenic CD8^+ T cells was determined by FCM analyses.

For `CC[C@H](C)[C@H](NC(=O)CN)C(=O)NCC(=O)N[C@@H](C)C(=O)N[C@H](C(=O)N[C@@H](CC(C)C)C(=O)N[C@@H](CCCCN)C(=O)N[C@H](C(=O)N[C@@H](CC(C)C)C(=O)N[C@H](C(=O)N[C@H](C(=O)NCC(=O)N[C@@H](CC(C)C)C(=O)N1CCC[C@H]1C(=O)N[C@@H](C)C(=O)N[C@@H](CC(C)C)C(=O)N[C@H](C(=O)N[C@@H](CO)C(=O)N[C@@H](Cc1c[nH]c2ccccc12)C(=O)N[C@H](C(=O)N[C@@H](CCCCN)C(=O)N[C@@H](CCCNC(=N)N)C(=O)N[C@@H](CCCCN)C(=O)N[C@@H](CCCNC(=N)N)C(=O)N[C@@H](CCC(N)=O)C(=O)N[C@@H](CCC(N)=O)C(N)=O)[C@@H](C)CC)[C@@H](C)CC)[C@@H](C)O)[C@@H](C)O)C(C)C)C(C)C` [melittin], the “humoral immune response (B cell immunity) against antigen UK39 coupled to IRIV” value [1] was “adjuvant effect; also recorded: further enhanced”.
For CKRKRQKRKRQSIINFEKL [Cys-Mel-OVA257-64], the “adjuvant effect in combination with IRIVs (peptide specific IFNγ+ CD8+ T cells)” value [2] was “further potentiated by its combination with IRIVs; also recorded: further synergizes with IRIVs”.
In the case of “KRKRQKRKRQ (Synthetic peptide derived from Apis mellifera)”, the “adjuvant activity (specific IFNγ+ CD8+ T cells/10^5 CD8+ T cells)” value ([3]; combined with target antigen T4 and oligodeoxynucleotide, spleen cells 12 days post vaccination restimulated ex vivo with T4 peptide) is reported as “significant adjuvant activity”, the “dependence of adjuvant activity on CpG motifs in the ODN” value [3] is reported as “not dependent on the presence of CpG sequences in the ODN” and the “dependence of adjuvant activity on CpG motifs in the ODN” value ([3]; listed as KRKRQKRKRQ) is reported as “does not depend on the presence of CpG motifs”.
